How the values were obtained:
Type in all cases: in vivo, Sprague-Dawley rats
[1] = tested on: plasma TNF-a; assay: LPS-induced inflammation in rats: plasma TNF-a; conditions: oral gavage 25 or 50 microgram daily over 7 days, LPS 0.5 mg/kg IP on Day 7, sacrifice four hours later, compared to LPS treated animals
Experimental: (§1) Male Sprague-Dawley rats (175 g) are kept on a 12-h light:dark cycle with food (Harlan-Teklad Rodent Chow, Madison, Wis.) and water provided freely. Animals are administered daily doses of vitamin K2 (MK-7) or saline (control) via oral gavage over 7 days. Stock solutions of vitamin K2 are prepared containing 3.5 g/L HCO-60 and 1 g/L of […] in buffer A (0.15 M NaCl, 0.05 M Tris-HCl, pH 7.5). The K2 is dissolved by sonication during five pulses of 5 set with an amplitude of 6 pm. Solutions thus obtained are clear, homogeneous, and stable. Shortly before vitamin K administration the stock solutions are diluted five times with buffer A, leading to a final HCO-60 concentration of 0.7 g/L. Further dilutions (as required) are made with 0.7 g/L HCO-60 in buffer A. Each dilution step is followed by sonication as described above. In all cases vitamin K2 is administered to the rats in 0.5 mL samples, with either 25 or 50 microgram oral doses.
On the final day (Day 7), rodents are administered vitamin K2 and 2 hours later were given an IP dose of LPS (Escherichia coli serotype O111:B4, L2630, Sigma) intraperitoneally (0.5 mg/kg of body weight). Four hours later animals are sacrificed.

[2] = tested on: NFκB p65 (Ser536); assay: LPS-treated rats: gastrocnemius muscle immunoblot, phosphorylated p65; conditions: oral 25 or 50 microgram daily over 7 days, LPS IP, compared to LPS treatment
Experimental: (§2) Male Sprague-Dawley rats (175 g) are kept on a 12-h light:dark cycle with food (Harlan-Teklad Rodent Chow, Madison, Wis.) and water provided freely. Animals are administered daily doses of vitamin K2 (MK-7) or saline (control) via oral gavage over 7 days. Stock solutions of vitamin K2 are prepared containing 3.5 g/L HCO-60 and 1 g/L of […] in buffer A (0.15 M NaCl, 0.05 M Tris-HCl, pH 7.5). The K2 is dissolved by sonication during five pulses of 5 set with an amplitude of 6 pm. Solutions thus obtained are clear, homogeneous, and stable. […]
(§3) Analysis of mTOR Signaling to eIFs—Gastrocnemius muscles are weighed and homogenized in 7 volumes of buffer containing 20 mM HEPES (pH 7.4), 100 mM potassium chloride, 0.2 mM EDTA, 2 mM EGTA, 50 mM sodium fluoride, 50 mM glycerophosphate, 0.1 mM phenylmethylsulfonyl fluoride, 1 mM benzamidine, 1 mM dithiothreitol (DTT), and 0.5 mM sodium vanadate. […] Samples are analyzed for the phosphorylation status of 4E-BP1 (Thr37) and ribosomal protein S6 (Ser 235/236), the anti-phosphospecific antibodies were obtained from Cell Signaling Technology, Beverly, Mass. Additionally, samples are analyzed for phosphorylated IKKα/β (Ser176/180; Cell Signaling Technology) and phosphorylated p65 (Ser536; Cell Signaling Technology).

[3] = tested on: ribosomal protein S6 (Ser 235/236); assay: LPS-treated rats: mTOR signaling to eIFs, ribosomal protein S6 phosphorylation in gastrocnemius muscle; conditions: oral 25 or 50 microgram daily over 7 days, LPS IP, compared to LPS treatment
Experimental: as §2, §3

[4] = tested on: mixed muscle protein synthesis; assay: LPS-treated rats: fractional rate of mixed muscle protein synthesis (Ks), radioactive phenylalanine incorporation; conditions: oral 25 or 50 microgram daily over 7 days, LPS IP, conditions of inflammatory sepsis, compared to LPS treatment
Experimental: as §1, with “doses. […]” for “doses.”
Measurement of Protein Synthesis—The fractional rate of synthesis (Ks) is estimated from the rate of incorporation of radioactive phenylalanine into total mixed muscle protein using the specific radioactivity of serum phenylalanine as representative of the precursor pool. […]

[5] = tested on: 4E-BP1 (Thr37); assay: LPS-treated rats: mTOR signaling to eIFs, 4E-BP1 phosphorylation in gastrocnemius muscle; conditions: oral 25 or 50 microgram daily over 7 days, LPS IP, compared to LPS treatment
Experimental: as §2, §3

[6] = tested on: IKKα/β (Ser176/180); assay: LPS-treated rats: gastrocnemius muscle immunoblot, phosphorylated IKKα/β; conditions: oral 25 or 50 microgram daily over 7 days, LPS IP, compared to LPS treatment
Experimental: as §2, §3

CC(C)=CCC/C(C)=C/CC/C(C)=C/CC/C(C)=C/CC/C(C)=C/CC/C(C)=C/CC/C(C)=C/CC1=C(C)C(=O)c2ccccc2C1=O [K2, vitamin K2 (MK-7)]
rise of plasma TNF-a [1]: significant decrease in the rise | NFκB p65 induction [2]: significant blunting | ribosomal protein S6 phosphorylation [3]: abrogates the decrease | fractional rate of mixed muscle protein synthesis [4]: greater preservation | 4E-BP1(Thr-37) phosphorylation [5]: abrogates the decrease | phosphorylation for IKKα/β [6]: significant blunting of the drop in phosphorylation
